1 compound from the NIST ThermoML archive (doi:10.1021/je0502501) can be followed below.

Numbers after ± are expanded uncertainties.

This data set in a line: wn = mass fraction of the nth substance listed. The conditions noted are these: 313 K, 101 kPa, Liquid, Vibrating tube method.

Consider `CCCCn1cc[n+](C)c1.F[P-](F)(F)(F)(F)F` [1-butyl-3-methylimidazolium hexafluorophosphate] + O, for which the mass density (usually mass per unit of volume) was 1358.7 ± 3.6 kg/m3 (w2 = 6.7e-05), 1357.6 ± 3.6 kg/m3 (w2 = 0.0015), 1347.3 ± 3.6 kg/m3 (w2 = 0.0089) and 1335.5 ± 3.5 kg/m3 (w2 = 0.016).
